Here are results for five compounds from patent US20240391862A1, “(1,4,5-TRISUBSTITUTED-1H-PYRAZOL-3-YL)OXY-2-ALKOXY ALKYL ACIDS AND THEIR DERIVATIVES, THEIR SALTS AND THEIR USE AS HERBICIDAL AGENTS” (Bayer AKtiengesellschaft, priority 2021, published 2024).

Structures are written as SMILES.

One data set concerns VIOTR. In words: Post-emergence herbicidal effect, greenhouse pot test. It counts as in vivo, Viola tricolor. The procedure, abridged:
(§1)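 Weeds sown in sandy loam, greenhouse-grown 2–3 weeks, then sprayed at one-leaf stage with WP or EC formulations in water plus 0.5% additive at 600 l/ha. Rates 20 to 320 g/ha. Visual rating after about 3 weeks versus untreated controls (100% = plants dead, 0% = like control).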

The test system of another data set is LOLRI. The data set is described as above. It counts as in vivo, Lolium rigidum. The conditions noted are these: 320 g/ha; for pest or weed control at 320 g/ha: Lolium rigidum, 504 h, read-out: Post-emergence effect against LOLRI in %. The method in brief: as §1
The test system of the next data set is ECHCG. The description is as above. It is filed as in vivo, Echinochloa crus-galli. As to conditions: for pest or weed control at 320 g/ha / pest or weed control at 80 g/ha: Echinochloa crus-galli, 504 h, read-out: Post-emergence effect against ECHCG in %. The method in brief:
as §1

A further data set concerns AVEFA. The description is as above. It counts as in vivo, Avena fatua. The conditions noted are these: 320 g/ha, visual rating about 3 weeks after treatment; for pest or weed control at 320 g/ha: Avena fatua, 504 h, read-out: Post-emergence effect against AVEFA. The procedure, abridged: as §1
Another data set deals with PHBPU. The data set is described as above. It is filed as in vivo, Ipomoea purpurea. The method in brief: as §1
A further data set concerns SETVI. The data set is described as above. It counts as in vivo, Setaria viridis. The procedure, abridged:
as §1

The next data set relates to VERPE. The description is as above. It counts as in vivo, Veronica persica. The conditions noted are these: for pest or weed control at 320 g/ha / pest or weed control at 80 g/ha: Veronica persica, 504 h, read-out: Post-emergence effect against VERPE in %. The method in brief: as §1
Another data set relates to DIGSA. The data set is described as above. It is filed as in vivo, Digitaria sanguinalis. As to conditions: 320 g/ha, visual rating about 3 weeks after treatment; for pest or weed control at 320 g/ha: Digitaria sanguinalis, 504 h, read-out: Post-emergence effect against DIGSA. The procedure, abridged: as §1
Another data set has as its system MATIN. Described as above. It counts as in vivo, Tripleurospermum inodorum. The conditions noted are these: for pest or weed control at 80 g/ha / pest or weed control at 320 g/ha: Tripleurospermum inodorum, 504 h, read-out: Post-emergence effect against MATIN in %. The procedure, abridged: as §1
For a further data set, the system named is ABUTH. The description is as above. It counts as in vivo, Abutilon theophrasti. The conditions noted are these: visual rating about 3 weeks after treatment; for pest or weed control at 320 g/ha / pest or weed control at 80 g/ha: Abutilon theophrasti, 504 h, read-out: Post-emergence effect against ABUTH. The method in brief: as §1
The next data set deals with TRZAS. In words: Post-emergence herbicidal effect and crop plant compatibility, greenhouse pot test. It counts as in vivo, Triticum aestivum. As to conditions: for Post-emergence effect at 20 g/ha against TRZAS in % / percent crop injury (phytotoxicity) to wheat, post-emergence at 20 g/ha: one-leaf stage, rated visually after about 3 weeks vs untreated controls; for percent crop injury (phytotoxicity) to wheat, post-emergence at 20 g/ha: Triticum aestivum, 504 h, read-out: Post-emergence effect at 20 g/ha against TRZAS in %. The method in brief:
(§2)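 Visual % activity scored roughly 3 weeks post-spray against untreated plants, where 100% means death and 0% equals control. Plants were treated at the one-leaf stage, 2 to 3 weeks after sowing in sandy loam, at 20 to 320 g/ha.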

The subject of the next data set is AMARE. Nature of the data set: Post-emergence herbicidal effect, greenhouse pot test. It is filed as in vivo, Amaranthus retroflexus. As to conditions: visual rating about 3 weeks after treatment. The method in brief: as §1
Another data set has as its system ZEAMX. Nature of the data set: Post-emergence herbicidal effect and crop plant compatibility, greenhouse pot test. It counts as in vivo, Zea mays. As to conditions: 20 g/ha, one-leaf stage, rated visually after about 3 weeks vs untreated controls; for plant injury at 20 g/ha: Zea mays, 504 h, read-out: Post-emergence effect at 20 g/ha against ZEAMX in %. The method in brief: as §2

Another data set has as its system POLCO. Nature of the data set: Post-emergence herbicidal effect, greenhouse pot test. As to conditions: Fallopia convolvulus, 504 h, read-out: Post-emergence effect against POLCO in %. It is filed as in vivo, Fallopia convolvulus. The procedure, abridged:
as §1

For the next data set, the system named is ALOMY. The data set is described as above. It counts as in vivo, Alopecurus myosuroides. As to conditions: Alopecurus myosuroides, 504 h, 320 g/ha, visual rating about 3 weeks after treatment, read-out: Post-emergence effect against ALOMY. The method in brief: as §1
[1] abbreviates: Viola tricolor, 504 h, read-out: Post-emergence effect against VIOTR in %.
[2] abbreviates: Viola tricolor, 504 h, 320 g/ha, read-out: Post-emergence effect against VIOTR in %.
Setting [3] is: Ipomoea purpurea, 504 h, 80 g/ha, read-out: Post-emergence effect against PHBPU in %.
Setting [4] is: Ipomoea purpurea, 504 h, 320 g/ha, read-out: Post-emergence effect against PHBPU in %.
Setting [5] is: Setaria viridis, 504 h, 320 g/ha, read-out: Post-emergence effect against SETVI in %.
Where [6] appears, read: Amaranthus retroflexus, 504 h, 320 g/ha, read-out: Post-emergence effect against AMARE.

`COC(=O)C(OC)Oc1nn(-c2cccc(C)c2F)c(-c2ccc(F)nc2)c1Br` (stereo not drawn) [Example I-114]: the “Post-emergence effect against VIOTR in %” value in the data set with VIOTR (320 g/ha) was 90%. Besides, the “Post-emergence effect against LOLRI in %” value in the data set on LOLRI was 80%. Also, the “Post-emergence effect against ECHCG” value in the data set with ECHCG (20 g/ha, visual rating about 3 weeks after treatment) was 80%. For the same compound, the “Post-emergence effect against ECHCG in %” value in the data set on ECHCG (80 g/ha) came out at 90%; in the data set on ECHCG (320 g/ha) it was 100%. Further, the “Post-emergence effect against AVEFA” value in the data set on AVEFA turned out to be 80%. The “Post-emergence effect against PHBPU in %” value is on record as 80% in the data set on PHBPU (80 g/ha) and 90% in the data set with PHBPU (320 g/ha). In addition, the “Post-emergence effect against SETVI in %” value in the data set on SETVI (320 g/ha) is 90%. Further, the “Post-emergence effect against VERPE in %” value is 80% in the data set on VERPE (20 g/ha), 80% in the data set on VERPE (80 g/ha) and 90% in the data set with VERPE (320 g/ha). The “Post-emergence effect against DIGSA” value with DIGSA worked out at 80%. Also, the “Post-emergence effect against MATIN in %” value was determined as 80% with MATIN (80 g/ha) and 90% in the data set with MATIN (320 g/ha). Moreover, the “Post-emergence effect against ABUTH” value with ABUTH (80 g/ha) was found to be 80%; with ABUTH (320 g/ha), 90%. For the same compound, the “Post-emergence effect at 20 g/ha against TRZAS in %” value with TRZAS is given as 0%. Besides, in the data set on TRZAS (80 g/ha, visual rating about 3 weeks after treatment, crop plant), the “Post-emergence effect against TRZAS” value worked out at 20%. The “Post-emergence effect against AMARE” value is given as 80% with AMARE (20 g/ha), 80% in the data set with AMARE (80 g/ha) and 90% with AMARE (320 g/ha).
For the compound `COC(=O)C(OC)Oc1nn(-c2ncccc2F)c(-c2ccc(F)nc2)c1I` (stereo not drawn) [Example I-39], the pest or weed control at 80 g/ha in the data set on VIOTR (setting [1]) came to 80%; in the data set with POLCO (80 g/ha), 90%; in the data set on PHBPU (setting [3]), 90%. For the same compound, the pest or weed control at 320 g/ha stood at 90% in the data set with VIOTR (setting [2]); 100% in the data set on LOLRI; 90% in the data set with ECHCG (320 g/ha); 90% in the data set on POLCO; 100% in the data set with ALOMY; 100% in the data set with AVEFA. The pest or weed control at 320 g/ha in the data set with PHBPU (setting [4]) came to 90%; in the data set on SETVI (setting [5]), 90%; with VERPE (320 g/ha) it was 90%; in the data set with ABUTH (320 g/ha), 90%; in the data set on AMARE (setting [6]) it was 80%. The plant injury at 20 g/ha in the data set with ZEAMX stood at 20%. Moreover, in the data set on TRZAS, the percent crop injury (phytotoxicity) to wheat, post-emergence at 20 g/ha was 0%.
Take `COC(Oc1nn(-c2cc(F)ccc2F)c(-c2cncc(F)c2)c1Br)C(=O)O` (stereo not drawn) [Example I-32]: the pest or weed control at 80 g/ha is 90% in the data set with VIOTR (setting [1]); 90% with ECHCG (80 g/ha); 90% in the data set on VERPE (80 g/ha); 90% in the data set with MATIN (80 g/ha); 80% in the data set on ABUTH (80 g/ha). The pest or weed control at 320 g/ha with VIOTR (setting [2]) was determined as 90%; in the data set with LOLRI, 90%; in the data set with ECHCG (320 g/ha), 90%; with POLCO, 80%; in the data set on AVEFA, 90%; in the data set with PHBPU (setting [4]), 90%. Also, the pest or weed control at 320 g/ha came out at 90% with SETVI (setting [5]); 90% with VERPE (320 g/ha); 90% in the data set on DIGSA; 90% in the data set on MATIN (320 g/ha); 90% with ABUTH (320 g/ha); 80% in the data set with AMARE (setting [6]). In addition, in the data set on ZEAMX, the plant injury at 20 g/ha turned out to be 10%. The percent crop injury (phytotoxicity) to wheat, post-emergence at 20 g/ha with TRZAS was determined as 10%.
Take `CCOC(=O)C(OC)Oc1nn(-c2cc(F)ccc2F)c(-c2cncc(F)c2)c1Br` (stereo not drawn) [Example I-33]: the pest or weed control at 20 g/ha worked out at 80% with VIOTR (Viola tricolor, 504 h, 20 g/ha, read-out: Post-emergence effect against VIOTR in %) and 80% with PHBPU (Ipomoea purpurea, 504 h, 20 g/ha, read-out: Post-emergence effect against PHBPU in %). Besides, the pest or weed control at 80 g/ha in the data set with VIOTR (setting [1]) was found to be 80%; in the data set on ECHCG (80 g/ha) it was 80%; in the data set on PHBPU (setting [3]), 90%; in the data set on SETVI (Setaria viridis, 504 h, 80 g/ha, read-out: Post-emergence effect against SETVI in %), 90%; in the data set with VERPE (80 g/ha), 80%; in the data set on MATIN (80 g/ha) it was 80%. Also, the pest or weed control at 80 g/ha in the data set on ABUTH (80 g/ha) was 90%. In addition, the pest or weed control at 320 g/ha amounted to 90% in the data set on VIOTR (setting [2]); 90% in the data set with LOLRI; 90% with ECHCG (320 g/ha); 80% in the data set with POLCO; 90% in the data set on ALOMY; 90% in the data set on AVEFA. Besides, the pest or weed control at 320 g/ha in the data set on PHBPU (setting [4]) worked out at 90%; with SETVI (setting [5]) it was 90%; in the data set on VERPE (320 g/ha), 90%; with DIGSA it was 80%; in the data set on MATIN (320 g/ha), 90%; in the data set on ABUTH (320 g/ha), 90%. In addition, the percent crop injury (phytotoxicity) to wheat, post-emergence at 20 g/ha in the data set on TRZAS was determined as 20%.
Consider `COC(Oc1nn(-c2ccccc2F)c(-c2ccc(F)nc2)c1Br)C(=O)O` (stereo not drawn) [Example I-25], for which the pest or weed control at 320 g/ha in the data set on VIOTR (setting [2]) was 80%; in the data set on LOLRI, 90%; with ECHCG (320 g/ha), 80%; in the data set with PHBPU (setting [4]) it was 90%; in the data set on SETVI (setting [5]), 90%; with VERPE (320 g/ha) it was 90%. Also, the pest or weed control at 320 g/ha in the data set on DIGSA is 90%; in the data set on MATIN (320 g/ha) it was 80%; with ABUTH (320 g/ha), 80%; with AMARE (setting [6]), 90%. Further, the “Post-emergence effect at 20 g/ha against ZEAMX in %” value in the data set on ZEAMX is on record as 20%. Moreover, the pest or weed control at 80 g/ha was 80% in the data set with VERPE (80 g/ha) and 80% in the data set on AMARE (Amaranthus retroflexus, 504 h, 80 g/ha, read-out: Post-emergence effect against AMARE). In addition, the “Post-emergence effect at 20 g/ha against TRZAS in %” value in the data set with TRZAS was 10%.
